Values of other authors in US10632107B2, “Crystalline forms of benzoquinoline inhibitors of vesicular monoamine transporter 2” (Apotex Inc., priority 2018, dated 2020).
Where two headings read alike, the source gives them in different places.

solubility (low pH of the stomach): slight solubility | solubility (pH values of greater than 4): practically insoluble
Compound: COc1cc2c(cc1OC)C1CC(=O)C(CC(C)C)CN1CC2 (racemic) [Tetrabenazine, rel-(3R,11bR)-1,3,4,6,7,11b-hexahydro-9,10-dimethoxy-3-(2-methylpropyl)-2H-benzo[a]quinolizin-2-one]
